Tested on: inducible human Hsp70
Assay: Hsp70 RNA induction by quantitative PCR analysis
Assay type: cell-based
Conditions: Ramos B cells, 500 nM compound, 6 hours, Hsp70 RNA relative to gapdh; for fold induction at 0.5 µM: Homo sapiens, read-out: fold induction over DMSO; for % induction relative to Compound X: Compound X set to 100%
Protocol: The ability of the compounds of the invention to induce Hsp70 RNA induction by quantitative PCR analysis was examined. Ramos B cells were treated with 500 nM each compound for 6 hours and the RNA was isolated from the cells. Quantitative PCR was performed as described below:
Details for Quantitative PCR are as follows:
500 ng of RNA from each sample was used for cDNA synthesis using iScript cDNA Synthesis Kit (Biorad, Cat#170-8891). 1 ul of cDNA mixture was used with the iQ SYBR Green Supermix (Biorad, Cat#170-8882) to perform quantitative PCR in an iCycler machine (Biorad) using standard protocols. QPCR for each sample/time point was performed in duplicate. The following primers for inducible human Hsp70 and gapdh were used: […]
Ct values were obtained from the iCycler program and used in an equation (2^−ΔΔCT) for determining the amount of target relative to gapdh expression. This compares the relative expression of Hsp70 to the corresponding levels of gapdh in each sample. Duplicate wells were averaged. The amount of N-Malonyl-bis(N′-methyl-N′ thiobenzoylhydrazide) (Compound X) induction of Hsp70 was set to 100% and the percent of induction of Hsp70 by the compounds of the invention was determined relative to 100%.

Compound	fold induction at 0.5 µM	% induction relative to Compound X
CN(/N=C/c1cccc(/C=N/N(C)C(=S)c2ccccc2)n1)C(=S)c1ccccc1 [Compound 16, (N′,N″E,N′,N″E)-N′,N″-(pyridine-2,6-diylbis(methan-1-yl-1-ylidene))bis(N-methylbenzothiohydrazide)]	0.48	0.18%
CN(/N=C/c1cccc(/C=N/N(C)C(=S)c2ccccc2)c1)C(=S)c1ccccc1 [Compound 17, (N′,N″E,N′,N″E)-N′,N″-(1,3-phenylenebis(methan-1-yl-1-ylidene))bis(N-methylbenzothiohydrazide)]	0.54	0.20%
CN(/N=C1\CCC/C(=N\N(C)C(=S)c2ccccc2)C1)C(=S)c1ccccc1 [Compound 22, (N′,N″E,N′,N″E)-N′,N″-(cyclohexane-1,3-diylidene)bis(N-methylbenzothiohydrazide)]	0.16	0.06%

Source: patent publication US8785451B2, “Compounds for the treatment of proliferative disorders” (Synta Pharmaceuticals Corp., priority 2006, dated 2014)
